Data: patent publication US10702568B2, “Compositions containing silymarin and sulfoalkyl ether cyclodextrin and methods of using the same” (UNIVERSITY OF KANSAS, priority 2015, dated 2020)
Converted amounts (≈) assume the structure as drawn.

Experiments:
[1] = Log D of silymarin components (octanol/buffer, HPLC); type: physicochemical; details: pH 7.4
Method: (§1) Silymarin components including taxifolin, silydianin, silychristin, silybin A, silybin B, isosilybin A, and isosilybin B were tested for their solubility in water and also for their Log D value. The silymarin extract was obtained from Indena® (Indena Code: 9065110). The HPLC system consisted of Waters system equipped with performance PLUS inline degasser along dual λ absorbance detector set at 288 nm. The chromatographic separation of silymarin constituents was achieved on a Symmetry Shield RP18 column (150×4.6 mm, 5 μm); which was maintained at ambient room temperature conditions. The binary mobile phase system consisted of reservoir A (methanol: 10 mM ammonium acetate pH 5 [65:35 v/v]) and reservoir B (10 mM ammonium acetate, pH 5) were run as per gradient program (0-1.9 min: 25% A and 75% B; 2.0-14.9 min: 80% A and 20% B and 15-37.9 min: 80% A and 20% B and 38-40 min: 25% A and 75% B). The flow rate was 1 mL/min throughout the analytical run.
To determine the Log D of silymarin components, the silymarin extract (2 mg) was dissolved in 100% DMSO and then used for the experiment. Different buffers between pH ranges of 1.0 to 12 were prepared by using universal buffer stock containing 25 mM hydrochloric acid, 25 mM citric acid, 25 mM phosphoric acid, 30 mM boric acid and 20 mM sodium chloride. About 45 mL of universal buffer was titrated with Sodium hydroxide (5M) to obtain desired pH. A 10 μL of silymarin stock solution was spiked into Eppendorf tube containing 500 μL each of a buffer and presaturated octanol. This mixture was vortexed for 5 minutes and kept for shaking at room temperature. After 16 h, the mixture was centrifuged at 10,000 RPM for 30 minutes. After centrifugation buffer and octanol phases were separated, both phases were diluted with acetonitrile (1:1) and subject to HPLC analysis for quantitation of individual components of silymarin. The Log D values of each compound at a pH was determined by Log D (pH)=Log [Organic (peak area)/Aqueous (peak area)].

[2] = Silymarin solubility in water, CAPTISOL® solution and γ-cyclodextrin solution (Example 2, HPLC); type: physicochemical; details: water, thermodynamic from solid, Solubility (mg/ml) of components of silymarin
Method: The solutions were centrifuged for 10 min at 13K rpm. An aliquot of the supernatant was diluted 1:5 for Water, 1:25 for γ-Cyclodextrin and 1:100 for both 0.20 M CAPTISOL® and 0.20M HP-B-Cyclodextrin using MeOH as the diluent. The standard reference was prepared by dissolving silymarin in 10 mg/mL of DMSO and then diluted to 0.50 mg/mL using MeOH.
The change of the saturated solubility of the various components of silymarin in each of the four types of samples can be seen in FIG. 4.
The data shown in Table 6 is plotted in FIGS. 5 and 6. The change of the solubility of the various components of silymarin in each of the three samples can be seen in FIG. 5. The total mutual saturated solubility of all flavonolignan components can be seen in FIG. 6. […] The various components of silymarin also have increased solubility in the CAPTISOL® (0.2M) sample.

[3] = physchem; details: 25 °C, water, thermodynamic from solid, Solubility (mg/ml) of flavonolignan components of silymarin
Method: CAPTISOL® was dissolved in water to form four solutions with a CAPTISOL® concentration of 0.05 mol/L, 0.1 mol/L, 0.2 mol/L, and 0.3 mol/L respectively. 12 mg of silymarin powder (Sigma Aldrich) was added to 1 mL of each of the four CAPTISOL® solutions on Day 1, another 12 mg Silymarin powder was added on Day 3, and 19-22 mg Silymarin powder was added on Day 7 to ensure that silymarin reached its maximum solubility in each solution. The solutions were stirred in a water bath at 25° C. The solutions were then centrifuged prior to sampling. The supernatant was diluted in MeOH in preparation for HPLC assay.
A reference standard was prepared by mixing silymarin with methanol to provide a methanol solution with a silymarin concentration of 0.1 mg/ml.
HPLC was used to measure the relative concentrations of the different components of silymarin in each sample solution following the method described in Kuki et al., (2012) Chromatogram 75:175-180. The relative concentration of each component of silymarin was measured by comparing the normalized peak area units with that of the standard reference measured by the UV data at 288 nm and assuming equivalent extinction coefficients for all components.
The relative molar amounts of the ten flavonolignan components of silymarin were calculated by dividing the normalized peak area of each component in a sample by the total normalized peak area of the sample.
The concentration of each flavonolignan component of silymarin was calculated from the peak areas in Tables 1a and 1b and the total concentration of silymarin (0.1 mg/ml) in the reference sample, assuming constant extinction coefficients for each component.

[4] = Solubility of silymarin components in water (Example 10, HPLC); type: physicochemical; details: water
Method: as §1

[5] = Pharmacokinetic study in rat; type: in vivo; details: in vivo; for Tmax: Tmax (h)
Method: The Silymarin-CAPTISOL® complex was administered to rat to test its pharmacokinetic properties.
On arrival rats were housed individually in cages at animal care facility in a temperature and humidity controlled room with a 12 h:12 h (light:dark) cycles. The rats were provided with free access to food and water for one week before using for experimental purpose. The 12 rats were equally divided into three groups—Group I: silymarin-CAPTISOL® complex with a CAPTISOL® concentration of 100 mM for oral administration; Group II: silymarin suspension (Control); and Group III: silymarin complex with a CAPTISOL® concentration of 100 mM for intravenous administration. The animals were fasted overnight with free access to water. On the day of experiment, the rat was removed from animal care facility and brought to the procedure lab. The animal was weighed and appropriate dosing volume was determined. For oral administration, rat's head was held in place by gently extending the head back and supporting the lower body. The gavage tube was placed in the mouth and advanced along the lower palate till the esophagus, and the silymarin was administered through the tube. For intravenous administration, the silymarin-CAPTISOL® complex was administered by slow bolus intravenous injection into the tail vein. Approximately 200 μL blood was drawn into heparin coated tubes at pre dose, 0.15, 0.5, 1, 2, 4, 8, 10 and 24 h for oral group II and for intravenous group III. The sampling time points were predose, 0.12, 0.25, 0.5, 1, 2, 4, 8 and 24 h through the jugular vein catheter. Plasma was harvested by centrifuging the blood at 4000 RPM for 5 min and stored frozen at −80±10° C. until analysis.
Stored plasma was thawed just before performing the silymarin components analysis. 200 μL of acetonitrile containing 0.1% of ammonia was added to 50 μL of plasma, and this mixture was vortexed for 5 min and centrifuged at 4° C. for 5 min at 10,000 RPM. After centrifugation, the supernatant was separated and injected into HPLC for analysis of silymarin constituents taxifolin, silydianin, silychristin, silybin A, silybin B, isosilybin A and isosilybin B.
The plasma concentration-time curves of silybin A, silybin B, isosilybin A, and isosilybin B in the Silymarin-CAPTISOL® sample of Group I and the control sample (silymarin suspension) are respectively shown in FIGS. 20A to 20D.

Row | logD at 16 h [1] | solubility [2] | solubility [3] | solubility [4] | AUC(0-t) ([5]; iv, AUC(0-2 h) (ng · h/mL)) | Cmax ([5]; iv, Cmax (ng/mL)) | Tmax ([5]; iv) | % Fabs of silymarin-CAPTISOL® complex compared with silymarin alone ([5]; po) | AUC of Silymarin-CAPTISOL® complex compared with the control sample ([5]; po) | AUC(0-2 h) ([5]; po) | Cmax of Silymarin-CAPTISOL® complex compared with the control sample ([5]; po) | Tmax ([5]; po) | Structure (SMILES)
1 | 1.64 | 120 µg/mL (≈ 249 µM) | 70 µg/mL (≈ 145 µM) | 232 µg/mL (≈ 481 µM) | – | – | – | – | – | – | – | – | COc1cc([C@@H]2[C@H]3CO[C@@]4(O)C(=O)[C@@H]2C=C([C@H]2Oc5cc(O)cc(O)c5C(=O)[C@@H]2O)[C@@H]34)ccc1O [Silydianin]
2 | 2.47 | 40 µg/mL (≈ 82.9 µM) | 40 µg/mL (≈ 82.9 µM) | 18.8 µg/mL (≈ 39 µM) | 1970 ng·h/mL | 4160 ng/mL | 4.2 min | higher % Fabs | higher AUC | 150 ng·h/mL | higher Cmax | 30 min | COc1cc([C@H]2Oc3ccc([C@H]4Oc5cc(O)cc(O)c5C(=O)[C@@H]4O)cc3O[C@@H]2CO)ccc1O [Isosilybin A]
